Results on one compound are retold here after patent publication US6838477B2, “Lactacystin analogs” (President and Fellows of Harvard College, priority 1995, dated 2005).

For one assay, the system named is p105 to p50 processing. Briefly: Proteasome dependent p105 to p50 processing in transfected COS cells (pulse-chase). It counts as cell-based, African green monkey. The conditions noted are these: 1 h pretreatment, 2 hour chase. How it is done: COS cells were plated onto 100 mm dishes, then, with DEAE-Destran, either mock transfected, or transfected with 3 μg of pcDNA plasmid containing the human p105 cDNA. Forty-eight hrs after transfection, cells were pretreated for 1 hour with 0.5% DMSO, 50 μM calpain inhibitor II, 50 μM MG132, or 10 μM β-lactone. Cells were then pulse labelled with 250 uCi/plate of ^35S-methionine/cysteine for 15 minutes, and either harvested immediately or followed by a 2 hour chase with excess unlabelled methionine and cysteine. Cells were then lysed with SDS/Tris, and proteins were immunoprecipitated with anti-p50 antibodies (recognize the N-terminal half of the p105 protein). These proteins were then separated on a 10% SDS-polyacrylamide gel, which was then fixed, dried, and exposed to autoradiographic film.

Another assay concerns the target T1, Calpain II (Homo sapiens, UniProt P17655).
T1 sequence (P17655 1-700): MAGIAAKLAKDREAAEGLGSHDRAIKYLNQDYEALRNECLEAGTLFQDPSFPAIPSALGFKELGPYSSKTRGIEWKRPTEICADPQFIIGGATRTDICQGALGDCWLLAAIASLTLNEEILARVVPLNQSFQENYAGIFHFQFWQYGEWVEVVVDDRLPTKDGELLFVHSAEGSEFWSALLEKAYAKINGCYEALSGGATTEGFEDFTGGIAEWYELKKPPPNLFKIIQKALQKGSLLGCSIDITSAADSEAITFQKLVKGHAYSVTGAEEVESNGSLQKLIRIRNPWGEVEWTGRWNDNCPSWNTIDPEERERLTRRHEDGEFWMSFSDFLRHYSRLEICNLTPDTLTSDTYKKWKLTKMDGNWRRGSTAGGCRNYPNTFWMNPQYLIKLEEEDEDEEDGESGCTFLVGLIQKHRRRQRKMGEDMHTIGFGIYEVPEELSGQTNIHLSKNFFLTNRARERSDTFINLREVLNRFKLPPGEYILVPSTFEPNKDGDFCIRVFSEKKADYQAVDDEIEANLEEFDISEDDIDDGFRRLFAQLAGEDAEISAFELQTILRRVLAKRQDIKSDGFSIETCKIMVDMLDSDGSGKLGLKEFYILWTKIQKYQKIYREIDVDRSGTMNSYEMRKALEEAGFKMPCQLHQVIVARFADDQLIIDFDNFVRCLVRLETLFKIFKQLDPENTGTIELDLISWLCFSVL
T1 sequence (P04632 1-268 partner): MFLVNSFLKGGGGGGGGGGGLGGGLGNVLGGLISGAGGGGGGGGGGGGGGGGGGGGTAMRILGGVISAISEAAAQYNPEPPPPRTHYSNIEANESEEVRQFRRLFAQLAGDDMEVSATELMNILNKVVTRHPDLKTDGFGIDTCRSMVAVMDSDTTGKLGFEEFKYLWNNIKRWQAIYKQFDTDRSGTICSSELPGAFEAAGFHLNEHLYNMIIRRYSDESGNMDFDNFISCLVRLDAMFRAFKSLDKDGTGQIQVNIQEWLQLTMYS
Briefly: Selectivity of protease inhibition: calpain II. The assay is classed as biochemical. The conditions noted are these: concentration not given.

The target of a further assay is T2, Papain (Carica papaya, UniProt P00784).
T2 sequence (P00784 134-345): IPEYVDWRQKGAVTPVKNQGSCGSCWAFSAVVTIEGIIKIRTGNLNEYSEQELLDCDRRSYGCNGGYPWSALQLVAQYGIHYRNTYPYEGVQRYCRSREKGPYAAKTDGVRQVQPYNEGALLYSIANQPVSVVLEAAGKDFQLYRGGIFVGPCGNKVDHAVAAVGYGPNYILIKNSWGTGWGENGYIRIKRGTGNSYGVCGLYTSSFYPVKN
Briefly: Selectivity of protease inhibition: papain. The assay is classed as biochemical. The following applies: concentration not given.

The next assay addresses α-Chymotrypsin (Bos taurus, UniProt P00766, DEL14-15/DEL147-148). Briefly: Selectivity of protease inhibition: α-chymotrypsin. The assay is classed as biochemical. The following applies: concentration not given.
In the next assay the target is T3, Trypsin (Bos taurus, UniProt P00760).
T3 construct: gene PRSS1
T3 sequence (P00760 24-246): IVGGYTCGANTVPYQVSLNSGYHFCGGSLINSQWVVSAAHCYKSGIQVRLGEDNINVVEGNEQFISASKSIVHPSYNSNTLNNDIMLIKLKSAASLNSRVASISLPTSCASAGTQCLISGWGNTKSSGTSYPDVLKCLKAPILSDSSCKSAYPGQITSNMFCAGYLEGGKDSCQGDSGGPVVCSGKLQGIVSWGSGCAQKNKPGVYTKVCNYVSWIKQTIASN
Briefly: Selectivity of protease inhibition: trypsin. It counts as biochemical. The following applies: concentration not given.

In another assay the target is Cathepsin B (Homo sapiens, UniProt P07858). In words: Selectivity of protease inhibition: cathepsin B. It counts as biochemical. The conditions noted are these: concentration not given.
A further assay addresses T4, Calpain I (Homo sapiens, UniProt P07384).
T4 sequence (P07384 1-714): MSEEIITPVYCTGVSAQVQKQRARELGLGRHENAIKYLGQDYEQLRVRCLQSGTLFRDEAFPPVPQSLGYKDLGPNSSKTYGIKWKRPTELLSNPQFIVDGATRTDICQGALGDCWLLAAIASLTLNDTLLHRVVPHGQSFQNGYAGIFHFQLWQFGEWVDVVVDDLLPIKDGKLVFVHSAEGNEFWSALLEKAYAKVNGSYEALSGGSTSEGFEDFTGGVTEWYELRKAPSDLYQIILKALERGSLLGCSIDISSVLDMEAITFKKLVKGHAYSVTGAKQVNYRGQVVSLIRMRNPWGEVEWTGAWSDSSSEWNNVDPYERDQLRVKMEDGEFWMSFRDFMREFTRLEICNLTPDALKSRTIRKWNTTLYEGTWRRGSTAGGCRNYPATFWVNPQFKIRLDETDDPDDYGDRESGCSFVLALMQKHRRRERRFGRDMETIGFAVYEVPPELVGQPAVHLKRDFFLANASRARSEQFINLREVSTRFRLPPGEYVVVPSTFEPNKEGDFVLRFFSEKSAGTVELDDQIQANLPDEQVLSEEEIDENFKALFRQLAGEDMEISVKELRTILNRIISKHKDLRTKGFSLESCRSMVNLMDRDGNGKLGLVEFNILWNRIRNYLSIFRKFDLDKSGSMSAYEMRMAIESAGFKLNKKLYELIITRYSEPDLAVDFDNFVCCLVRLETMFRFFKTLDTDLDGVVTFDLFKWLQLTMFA
T4 sequence (P04632 1-268 partner): T1 sequence (P04632 1-268 partner)
In words: Selectivity of protease inhibition: calpain I. It counts as biochemical. The following applies: concentration not given.

Experimental for Calpain II: (§1) Fluorescent emission at 460 nm with excitation at 380 nm was measured for AMC-containing substrates, and emission at 410 nm with excitation at 335 nm was measured for βNA-containing substrates. The fluorescence assays were conducted at 25° C., each experiment was performed at least three times, and values represent mean±standard deviation.
Experimental for Cathepsin B: as §1
Experimental for Papain: as §1
Experimental for α-Chymotrypsin: as §1

Consider `CC(C)[C@H](O)[C@@]12NC(=O)[C@H](C)[C@@H]1OC2=O` [β-Lactone, clasto-lactacystin β-lactone], for which the “processing of p105 to p50 (level of p50)” value with p105 to p50 processing (10 μM) is listed as “only a slight effect”. Besides, in the assay on p105 to p50 processing (50 μM), the “processing of p105 to p50 (appearance of p50)” value is listed as “complete inhibition”. The “inhibition of calpain II activity” value against Calpain II is reported as “do not inhibit”. Besides, the “inhibition of papain activity” value at Papain was “do not inhibit”. Also, the “inhibition of α-chymotrypsin activity” value against α-Chymotrypsin is “do not inhibit”. Moreover, the “inhibition of trypsin activity” value against Trypsin is listed as “do not inhibit”. In addition, at Cathepsin B, the “inhibition of cathepsin activity” value is “do not inhibit”. Moreover, the “inhibition of calpain I activity” value against Calpain I is listed as “do not inhibit”.
